{
  "source": "patent US20070197573A1",
  "about": "“Compositions and methods in the treatment of bone metabolic disorders” (priority 2005, published 2007)",
  "key": {"IL-1β": {"tested_on": "IL-1β", "experiment": "IL-1β level within the bone after sustained morphine infusion", "assay_type": "in vivo, mice", "conditions": "sarcoma-induced", "source_text": "(§1) The peripheral opioid antagonists according to the invention provide a conjunctive therapy for managing bone metabolism while opiates are in use. Specific data describing the metabolic effects of opiates on bone metabolism are provided in the examples."}, "[1]": {"tested_on": "sarcoma-induced bone loss", "experiment": "Murine bone cancer model (sarcoma cells injected into femur), radiographic bone loss, fracture and pain under sustained morphine infusion", "assay_type": "in vivo, mice"}, "sarcoma cells": {"tested_on": "sarcoma cells", "experiment": "Tumor growth in vitro", "assay_type": "cell-based", "source_text": "as §1"}, "osteoclasts": {"tested_on": "osteoclasts", "experiment": "Osteoclast count by TRAP staining in metaphysis of distal femur", "assay_type": "in vivo, mice", "source_text": "Previous studies have shown that osteolytic cancers, such as the sarcoma cell line used in these studies, upregulate osteoclasts within the bone. To determine whether the enhanced morphine-induced bone loss is mediated through further upregulation of osteoclasts, osteoclasts were stained and counted within the metaphysis of the distal head of the femur using tartrate resistant acid phosphatase (TRAP) staining."}, "human osteoblasts": {"tested_on": "human osteoblasts", "conditions": "in vitro treatment; cited from earlier work"}, "[2]": {"conditions": "cited from earlier work"}, "[3]": {"conditions": "drug-dependent mice; cited from earlier work"}, "delta receptors": {"molecular_target": "delta receptors (Homo sapiens, UniProt P41143)", "sequence (P41143 whole entry)": "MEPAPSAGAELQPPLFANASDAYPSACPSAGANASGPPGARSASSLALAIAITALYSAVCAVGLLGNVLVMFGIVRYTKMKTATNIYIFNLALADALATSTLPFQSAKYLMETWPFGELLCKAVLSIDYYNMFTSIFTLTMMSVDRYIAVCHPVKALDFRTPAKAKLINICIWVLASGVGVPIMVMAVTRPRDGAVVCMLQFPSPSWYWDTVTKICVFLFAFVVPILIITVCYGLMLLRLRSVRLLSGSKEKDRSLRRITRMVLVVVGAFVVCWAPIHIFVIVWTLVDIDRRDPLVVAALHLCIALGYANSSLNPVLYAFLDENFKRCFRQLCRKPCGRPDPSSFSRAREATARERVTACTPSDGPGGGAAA", "conditions": "in vitro; cited from earlier work"}, "μ opioid receptor": {"molecular_target": "μ opioid receptor (Homo sapiens, UniProt P35372)", "sequence (P35372 whole entry, species assumed)": "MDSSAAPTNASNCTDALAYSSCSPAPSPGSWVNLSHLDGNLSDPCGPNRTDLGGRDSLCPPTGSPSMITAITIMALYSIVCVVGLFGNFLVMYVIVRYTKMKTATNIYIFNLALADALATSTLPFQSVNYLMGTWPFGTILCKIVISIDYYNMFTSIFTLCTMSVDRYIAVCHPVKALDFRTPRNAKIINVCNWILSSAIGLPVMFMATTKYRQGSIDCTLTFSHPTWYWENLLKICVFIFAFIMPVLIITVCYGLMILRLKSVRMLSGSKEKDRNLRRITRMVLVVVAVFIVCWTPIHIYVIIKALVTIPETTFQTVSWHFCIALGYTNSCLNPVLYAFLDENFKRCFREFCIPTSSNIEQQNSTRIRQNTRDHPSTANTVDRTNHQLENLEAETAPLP", "conditions": "cited from earlier work"}, "[4]": {"conditions": "sustained morphine administration"}},
  "data": [
    {"molecule": "CN1CC[C@]23c4c5ccc(O)c4O[C@H]2[C@@H](O)C=C[C@H]3[C@H]1C5", "note": "[morphine]", "values": [
      {"measurement": "IL-1β within the bone", "setting": "IL-1β", "value": "upregulated"},
      {"measurement": "sarcoma-induced bone loss (radiograph rating) vs saline infusion", "setting": "[1]; 6 days after sarcoma injection", "value": "no difference between morphine or saline treated mice"},
      {"measurement": "incidence of sarcoma-induced fracture vs saline infusion", "setting": "[1]; 10 days and 12 days after sarcoma injection into the femur", "value": "doubled"},
      {"measurement": "sarcoma-induced bone loss (radiograph rating) vs saline infusion", "setting": "[1]; 12 days after femoral sarcoma injection, sustained morphine infusion", "value": "increased sarcoma-induced bone loss"},
      {"measurement": "tumor burden in vivo", "setting": "[1]; in vivo", "value": "did not alter"},
      {"measurement": "sarcoma-induced pain", "setting": "[1]; [4]", "value": "enhances sarcoma-induced pain"},
      {"measurement": "time to fracture", "setting": "[1]; [4]", "value": "accelerated time to fracture"},
      {"measurement": "tumor growth in vitro", "setting": "sarcoma cells", "value": "did not alter"},
      {"measurement": "osteoclast TRAP staining vs saline", "setting": "osteoclasts; control animals (no sarcoma)", "value": "no difference in osteoclast staining"},
      {"measurement": "osteoclast TRAP staining vs saline infusion", "setting": "osteoclasts; sarcoma treated animals, sustained morphine infusion", "value": "increased sarcoma-induced upregulation of osteoclasts"}
    ]},
    {"molecule": "O=C(O)Cc1ccccc1Nc1c(Cl)cccc1Cl", "note": "[Diclofenac]", "values": [
      {"measurement": "concentration giving a significant decrease of cell proliferation", "setting": "human osteoblasts", "value": 6, "unit": "micrograms/ml"},
      {"measurement": "therapeutic concentration in serum", "setting": "[2]", "value": "approximately 1.5 micrograms/ml"}
    ]},
    {"molecule": "COc1cccc(C2(O)CCCCC2CN(C)C)c1", "note": "(centres unmarked) [Tramadol]", "values": [
      {"measurement": "concentration giving a significant decrease of cell proliferation", "setting": "human osteoblasts", "value": "greater than 20 micrograms/ml"},
      {"measurement": "therapeutic concentration in serum", "setting": "[2]", "value": 0.25, "unit": "micrograms/ml"}
    ]},
    {"molecule": "CTAP", "values": [
      {"measurement": "withdrawal elicited, compared with naloxone", "setting": "[3]", "value": "significantly less withdrawal than naloxone"}
    ]},
    {"molecule": "O=C1C(=Cc2ccccc2)C[C@@]2(O)[C@H]3Cc4ccc(O)c5c4[C@@]2(CCN3CC2CC2)[C@H]1O5", "note": "[BNTX, 7-benzylidenenaltrexone]", "values": [
      {"measurement": "type of activity at the delta receptor", "setting": "delta receptors", "value": "inverse agonist"},
      {"measurement": "type of activity at the mu receptor", "setting": "μ opioid receptor", "value": "inverse agonist"}
    ]}
  ]
}
